Assay in all cases: growth of human tumour cells (NCI), 48 h
In assay [1] the test system is MDA-MB-435.
For assay [2], the system named is SK-MEL-28 melanoma.
The subject of assay [3] is HCT-116 colon.
The test system of assay [4] is K-562 leukemia.
Assay [5] relates to SNB-75 CNS.
Assay [6] concerns ACHN renal.
For assay [7], the system named is T-47D breast.
For assay [8], the system named is MALME-3M melanoma.
Assay [9] concerns NCI-H226 lung.
In assay [10] the test system is 786-0 renal.

Each structure is given as a SMILES string.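 Five compound concentrations were applied to cells in 96-well plates for 48 hours; endpoints were derived by simple linear interpolation of the resulting dose-response curve. At the TGI there is no net growth.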

As to `C=C1CC(O)C2C(=C)C(=O)OC2C2C(C)C(=O)CC12` (stereo not given), the TGI was 33.1 µM in assay [1]; 46.5 µM in [2]; greater than 100 µM in [3]; 28.7 µM in assay [4]; 30.3 µM in [5]; 17.9 µM in assay [6]. The values for the TGI in assay [7] and in [8] were 73 µM and 31.5 µM, respectively.

Regarding `CCOC(=O)Cc1cc(=O)[nH]c(-n2[nH]c(C)c(CCO)c2=O)n1`, the TGI in assay [1], in assay [9], in [2], in assay [3], in [10] and in assay [4] was greater than 100 µM in each case. Besides, the TGI in assay [6], in assay [7] and in [8] was greater than 100 µM each time.

Regarding `N#Cc1c(N2CCCC2)nsc1Nc1ccccc1`, the TGI in assay [9], in [2], in assay [3], in assay [10], in [4] and in [5] was greater than 100 µM in each case. The TGI in [6], in assay [7] and in assay [8] was greater than 100 µM each time.

As for `Cc1cc(OCC(O)CO)ccc1Cl` (stereo not given), the TGI in assay [9], in [2], in assay [3], in [4], in assay [5] and in assay [6] was greater than 100 µM in each case. The TGI in assay [8] was greater than 100 µM.

In the case of `COc1ccc(/C=C2\OC(=O)C(Cl)=C2c2ccc(OC)c(Cl)c2)cc1`, the TGI was 59.9 µM in [1]; greater than 100 µM in assay [2]; greater than 100 µM in assay [3]; 35.5 µM in assay [10]; greater than 100 µM in assay [4]; 63.4 µM in [5]. Also, the figures for the TGI in assay [6], in assay [7] and in assay [8] were greater than 100 µM, greater than 100 µM and 62.3 µM, respectively.

For `Cc1cc(S(=O)(=O)Nc2n[nH]c(Nc3ccccc3)n2)c(SSc2cc(Cl)c(C)cc2S(=O)(=O)Nc2n[nH]c(Nc3ccccc3)n2)cc1Cl`, the TGI in [1], in assay [2], in assay [3], in assay [4], in assay [5] and in [6] was greater than 100 µM throughout. Further, the TGI in [7] and in assay [8] was greater than 100 µM throughout.

Regarding `CCOC(=O)C1=C(C)N(Cc2ccccc2)C2(O)C(OC)CC(=O)C3C(=O)N(c4ccccc4)C(=O)C132` (stereo not given), the TGI in [1] was greater than 100 µM; in [9], 37.5 µM; in assay [2], 23.3 µM; in [3], greater than 100 µM; in assay [10], greater than 100 µM; in assay [4], greater than 100 µM. In addition, the values for the TGI in [6], in assay [7] and in assay [8] were 48.4 µM, 30.5 µM and 36.7 µM, respectively.

`COc1cc(-c2nc(SC)nc3c2CCc2ccccc2-3)cc(OC)c1OC`: the TGI was greater than 100 µM in [1]; greater than 100 µM in assay [2]; greater than 100 µM in [3]; greater than 100 µM in [10]; 79.2 µM in assay [4]; greater than 100 µM in assay [5]. In addition, the TGI in assay [6] and in assay [7] was greater than 100 µM each time.

Regarding `COc1ccc(/C=C(/c2ccc(OC)cc2)c2c(Cl)cc(Cl)c(/C(=C\c3ccc(OC)cc3)c3ccc(OC)cc3)c2N=Nc2ccccc2)cc1`, the TGI in [1], in [2], in [3], in assay [10], in assay [4] and in [5] was greater than 100 µM in each case. For the same molecule, the TGI in assay [6], in [7] and in [8] was greater than 100 µM throughout.

Regarding `Cc1ccc(S(=O)(=O)N/N=C\c2c3ccccc3[n+](C)c3ccccc23)cc1`, the TGI in assay [9] is 60.1 µM; in assay [2] it was greater than 100 µM; in assay [3] it was greater than 100 µM; in assay [10], greater than 100 µM; in assay [4], 52.7 µM; in assay [5], 46 µM. The TGI in [6] was greater than 100 µM; in [8], 95.3 µM.

As for `Cc1ccc2c(=O)cc(-c3cccc(F)c3)[nH]c2n1`, the TGI in assay [1] was 0.0224 µM; in assay [9], 0.475 µM; in [2], greater than 100 µM; in [10] it was greater than 100 µM; in [4] it was greater than 100 µM; in [6], greater than 100 µM. The molecule further gave a TGI in [8] greater than 100 µM.

As to `CCCCCCCCCCOc1ccc(N=Nc2nnc(-c3ccc(OCCCCC)cc3)s2)cc1`, the TGI in [1], in [2], in assay [3], in [10], in [4] and in assay [6] was greater than 100 µM throughout. Besides, the TGI in [7] and in [8] was greater than 100 µM in each case.

As to `Cc1cc(OCc2nnc3n2N=C(c2cc(F)c(Cl)cc2Cl)/C(=C/c2ccc(-c4ccc(Cl)cc4)o2)S3)ccc1Cl`, the TGI in assay [1], in assay [9], in assay [2], in assay [3], in assay [10] and in assay [4] was greater than 50 µM throughout. In addition, the TGI in assay [6], in assay [7] and in assay [8] was greater than 50 µM in each case.

As for `COC(=O)C(CNC(=O)/C=C/c1ccc(OC(C)=O)c(OC(C)=O)c1)NC(=O)/C=C/c1ccc(OC(C)=O)c(OC(C)=O)c1` (stereo not given), the TGI in assay [1], in assay [9], in [2], in [3], in assay [10] and in assay [4] was greater than 100 µM each time. Also, the TGI in assay [6], in assay [7] and in assay [8] was greater than 100 µM in each case.

With `CC(C)N1[C@@H]2CCCC[C@H]2N(C(C)C)[P+]1=O`, the TGI in assay [1], in assay [9], in assay [3], in [10], in assay [4] and in [5] was greater than 100 µM in each case. The TGI in assay [6] and in [7] was greater than 100 µM each time.

The record behind these values is PubChem BioAssay (NCI).
